# Experimental data reported in patent US6855713B2, “Benzimidazole derivatives, a process for their manufacture and use as a medicine” (Boehringer Ingelheim Pharma KG, priority 2001, dated 2005).
# Counter-ions that a name gives are not always drawn.
# Molecular target: T1, rh beta trypsin (Homo sapiens, UniProt P20231)
# T1 construct: purchased Promega
# Experiment: Trypsin (tryptase) inhibition, cleavage of N-p-Gly-Pro-Lys-para-nitroaniline measured at 405 nm
# Format: biochemical
# Conditions: in vitro; tris-HCl buffer pH 7.4 with calcium and heparin; substrate 0.6 mM; 5 minutes, 37° C.; read-out: Trypsin-inhibiting property
# Method: The compounds of the invention are notable for their effective trypsin-inhibiting property. The said capacity to inhibit trypsin activity was determined in accordance with the following trial descriptions.
# The determinations are carried out in tris-HCl buffer (100 mM), that also contained calcium (5 mM) and heparin ([…]), at a pH of 7.4. As the standard, rh beta trypsin is used, this is commercially obtainable, for example, from Promega. A suitable substrate is N-p-Gly-Pro-Lys-para-nitroaniline in a concentration of 0.6 mM. The substrate is digested with trypsin, whereby p-nitro-aniline is obtained that can be measured at 405 nm. Normally, an incubation period of 5 minutes and an incubation temperature of 37° C. is chosen. For the enzyme activity, 0.91 U/ml are used. The determination is carriedout in an auto-analyser (Cobas Bio) from the firm Hoffmann LaRoche. The potential inhibitor substances are used in the screening procedure in concentrations of 10 μM, and the inhibition of the trypsin is given in percentages. At an inhibition in excess of 70%, the IC50 is determined (the concentration at which 50% of the enzyme activity is inhibited). After a 5-minute pre-incubation of the potential inhibiting substance, the substrate is added for the start of the reaction, whereby the production of p-nitro-aniline is taken, after 5 minutes, after testing the linearity, as a measure of the enzyme activity.
# T1 sequence (P20231 31-275): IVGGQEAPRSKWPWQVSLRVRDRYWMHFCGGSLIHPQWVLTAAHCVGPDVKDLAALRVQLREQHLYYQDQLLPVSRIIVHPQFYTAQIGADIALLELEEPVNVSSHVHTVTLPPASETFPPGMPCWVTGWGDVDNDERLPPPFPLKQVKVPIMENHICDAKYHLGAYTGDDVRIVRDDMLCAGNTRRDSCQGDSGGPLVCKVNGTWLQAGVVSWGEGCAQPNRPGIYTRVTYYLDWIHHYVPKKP
row,Compound,IC50
1,"Cn1c(CCc2ccc(C(=N)N)cc2)nc2cc(C(=O)N3CCN(C/C=C/c4ccccc4)CC3)ccc21 [Example 1, [2-(4-amidinophenyl)-ethyl]-1-methyl-benzimidazole-5-yl-carboxylic acid-[4-(3-phenyl-allyl)-piperazinyl]-amide-dihydrochloride]",1 to 20 nM
2,"Cn1c(CCc2ccc(CN)cc2)nc2cc(C(=O)N3CCC(NC(=O)c4ccccc4)CC3)ccc21 [Example 15, 2-[2-(4-Aminomethylphenyl)-ethyl]-1-methyl-benzimidazole-5-yl-carboxylic acid-(4-benzamido-piperidinyl)-amide]",1 to 20 nM
3,"CCOCCCn1c(CCc2ccc(C(=N)N)cc2)nc2cc(C(=O)N3CCC(NC(=O)Nc4ccccc4)CC3)ccc21 [Example 20, 2-[2-(4-Amidinophenyl)-ethyl]-1-(3-ethoxy-propyl)-benzimidazol-5-yl-carbonsäure-[4-(3-phenyl-ureido)-piperidinyl]-amid-dihydrochlorid]",1 to 20 nM
4,"Cc1cccc(NC(=O)NC2CCN(C(=O)c3ccc4c(c3)nc(CCc3ccc(C(=N)N)cc3)n4C)CC2)c1 [Example 25, 4-(2-{1-Methyl-5-[4-(3-m-tolyl-ureido)-piperidine-1-carbonyl]-1H-benzimidazole-2-yl}-ethyl)-benzamidine]",1 to 20 nM
5,"Cn1c(CCc2ccc(C(=N)N)cc2)nc2cc(C(=O)N3CCC(NC(=O)Nc4cccc(F)c4)CC3)ccc21 [Example 26, 4-[2-(5-{4-[3-(3-Fluoro-phenyl)-ureido]-piperidine-1-carbonyl}-1-methyl-1H-benzimidazole-2-yl)-ethyl]-benzamidine]",1 to 20 nM
6,"Cn1c(CCc2ccc(C(=N)N)cc2)nc2cc(C(=O)N3CCC(NC(=O)Nc4ccc(Cl)cc4)CC3)ccc21 [Example 31, 4-[2-(5-{4-[3-(4-Chloro-phenyl)-ureido]-piperidine-1-carbonyl}-1-methyl-1H-benzimidazole-2-yl)-ethyl]-benzamidine]",1 to 20 nM
7,"Cn1c(CCc2ccc(C(=N)N)cc2)nc2cc(C(=O)N3CCC(NC(=O)Nc4cccc(C(F)(F)F)c4)CC3)ccc21 [Example 32, 4-[2-(1-Methyl-5-{4-[3-(3-trifluoromethyl-phenyl)-ureido]-piperidine-1-carbonyl}-1H-benzimidazole-2-yl)-ethyl]-benzamidine]",1 to 20 nM
8,"Cn1c(CCc2ccc(C(=N)N)cc2)nc2cc(C(=O)N3CCC(NC(=O)Nc4ccc(F)cc4F)CC3)ccc21 [Example 33, 4-[2-(5-{4-[3-(2,4-Difluoro-phenyl)-ureido]-piperidine-1-carbonyl}-1-methyl-1H-benzimidazole-2-yl)-ethyl]-benzamidine]",1 to 20 nM
9,"Cn1c(CCc2ccc(C(=N)N)cc2)nc2cc(C(=O)N3CCC(NC(=O)Nc4cccc5ccccc45)CC3)ccc21 [Example 34, 4-(2-{1-Methyl-5-[4-(3-naphthalen-1-yl-ureido)-piperidine-1-carbonyl]-1H-benzimidazole-2-yl}-ethyl)-benzamidine]",1 to 20 nM
10,"Cn1c(CCc2ccc(C(=N)N)cc2)nc2cc(C(=O)N3CCC(NC(=O)Nc4ccc(Cl)cc4Cl)CC3)ccc21 [Example 35, 4-[2-(5-{4-[3-(2,4-Dichloro-phenyl)-ureido]-piperidine-1-carbonyl}-1-methyl-1H-benzimidazole-2-yl)-ethyl]-benzamidine]",1 to 20 nM
11,"Cn1c(CCc2ccc(C(=N)N)cc2)nc2cc(C(=O)N3CCC(NC(=O)Nc4ccc5ccccc5c4)CC3)ccc21 [Example 36, 4-(2-{1-Methyl-5-[4-(3-naphthalen-2-yl-ureido)-piperidine-1-carbonyl]-1H-benzimidazole-2-yl}-ethyl)-benzamidine]",1 to 20 nM
12,"Cn1c(CCc2ccc(C(=N)N)cc2)nc2cc(C(=O)N3CCC(NC(=O)Nc4c(F)cccc4F)CC3)ccc21 [Example 38, 4-[2-(5-{4-[3-(2,6-Difluoro-phenyl)-ureido]-piperidine-1-carbonyl}-1-methyl-1H-benzimidazole-2-yl)-ethyl] -benzamidine]",1 to 20 nM
13,"Cn1c(CCc2ccc(C(=N)N)cc2)nc2cc(C(=O)N3CCC(NC(=O)Nc4ccc(Br)cc4)CC3)ccc21 [Example 39, 4-[2-(5-{4-[3-(4-Bromo-phenyl)-ureido]-piperidine-1-carbonyl}-1-methyl-1H-benzimidazole-2-yl)-ethyl] -benzamidine]",1 to 20 nM
14,"Cn1c(CCc2ccc(C(=N)N)cc2)nc2cc(C(=O)N3CCC(NC(=O)NC4CCCCC4)CC3)ccc21 [Example 40, 4-(2-{5-[4-(3-Cyclohexyl-ureido)-piperidine-1-carbonyl]-1-methyl-1H-benzimidazole-2-yl}-ethyl)-benzamidine]",1 to 20 nM
15,"Cn1c(CCc2ccc(C(=N)N)cc2)nc2cc(C(=O)N3CCC(NC(=O)Nc4ccc(C(F)(F)F)cc4)CC3)ccc21 [Example 41, 4-[2-(1-Methyl-5-{4-[3-(4-trifluoromethyl-phenyl)-ureido]-piperidine-1-carbonyl}-1H-benzimidazole-2-yl)-ethyl]-benzamidine]",1 to 20 nM
16,"Cn1c(CCc2ccc(C(=N)N)cc2)nc2cc(C(=O)N3CCC(NC(=O)Nc4ccc(F)cc4)CC3)ccc21 [Example 42, 4-[2-(5-{4-[3-(4-Fluoro-phenyl)-ureido]-piperidine-1-carbonyl}-1-methyl-1H-benzimidazole-2-yl)-ethyl]-benzamidine]",1 to 20 nM
17,"Cn1c(CCc2ccc(C(=N)N)cc2)nc2cc(C(=O)N3CCC(NC(=O)Nc4cccc(Br)c4)CC3)ccc21 [Example 43, 4-[2-(5-{4-[3-(3-Bromo-phenyl)-ureido]-piperidine-1-carbonyl}-1-methyl-1H-benzimidazole-2-yl)-ethyl]-benzamidine]",0.1 to 1 nM
18,"CN(C(=O)c1ccccc1)C1CCN(C(=O)c2ccc3c(c2)nc(CCc2ccc(C(=N)N)cc2)n3C)CC1 [Example 53, 2-[2-(4-Amidinophenyl)-ethyl]-1-methyl-benzimidazole-5-yl-carbooxylic acid-[4-(N-methyl)benzamidopiperidinyl]-amide]",1 to 20 nM

# Next, values leading:
row,IC50,Compound
1,0.1 to 1 nM,"Cn1c(CCc2ccc(C(=N)N)cc2)nc2cc(C(=O)N3CCC(NC(=O)Nc4ccccc4F)CC3)ccc21 [Example 27, 4-[2-(5-{4-[3-(2-Fluoro-phenyl)-ureido]-piperidine-1-carbonyl}-1-methyl-1H-benzimidazole-2-yl)-ethyl]-benzamidine]"
2,0.1 to 1 nM,"COc1cccc(NC(=O)NC2CCN(C(=O)c3ccc4c(c3)nc(CCc3ccc(C(=N)N)cc3)n4C)CC2)c1 [Example 28, 4-[2-(5-{4-[3-(3-Methoxy-phenyl)-ureido]-piperidine-1-carbonyl}-1-methyl-1H-benzimidazole-2-yl)-ethyl]-benzamidine]"
3,0.1 to 1 nM,"Cn1c(CCc2ccc(C(=N)N)cc2)nc2cc(C(=O)N3CCC(NC(=O)Nc4ccccc4Cl)CC3)ccc21 [Example 29, 4-[2-(5-{4-[3-(2-Chloro-phenyl)-ureido]-piperidine-1-carbonyl}-1-methyl-1H-benzimidazole-2-yl)-ethyl]-benzamidine]"
4,1 to 20 nM,"COc1ccccc1NC(=O)NC1CCN(C(=O)c2ccc3c(c2)nc(CCc2ccc(C(=N)N)cc2)n3C)CC1 [Example 30, 4-[2-(5-{4-[3-(2-Methoxy-phenyl)-ureido]-piperidine-1-carbonyl}-1-methyl-1H-benzimidazole-2-yl)-ethyl]-benzamidine]"
5,0.1 to 1 nM,"Cn1c(CCc2ccc(C(=N)N)cc2)nc2cc(C(=O)N3CCC(NC(=O)Nc4ccccc4Br)CC3)ccc21 [Example 37, 4-[2-(5-{4-[3-(2-Bromo-phenyl)-ureido]-piperidine-1-carbonyl}-1-methyl-1H-benzimidazole-2-yl)-ethyl]-benzamidine]"
6,0.1 to 1 nM,"Cn1c(CCc2ccc(C(=N)N)cc2)nc2cc(C(=O)N3CCC(NC(=O)c4cccc(Cl)c4)CC3)ccc21 [Example 44, 2-[2-(4-Amidinophenyl)-ethyl]-1-methyl-benzimidazole-5-yl-carboxylic acid-[4-(3-chloro)-benzamidopiperidinyl)-amide]"
7,0.1 to 1 nM,"Cn1c(CCc2ccc(C(=N)N)cc2)nc2cc(C(=O)N3CCC(NC(=O)c4cccc(Br)c4)CC3)ccc21 [Example 45, 2-[2-(4-Amidinophenyl)-ethyl]-1-methyl-benzimidazole-5-yl-carboxylic acid-[4-(3-bromo)-benzamidopiperidinyl)-amide]"
8,1 to 20 nM,"Cn1c(CCc2ccc(C(=N)N)cc2)nc2cc(C(=O)N3CCC(NC(=O)c4ccccc4O)CC3)ccc21 [Example 46, 2-[2-(4-Amidinophenyl)-ethyl]-1-methyl-benzimidazole-5-yl-carboxylic acid-[4-(2-hydroxy)-benzamidopiperidinyl)-amide]"
9,1 to 20 nM,"Cn1c(CCc2ccc(C(=N)N)cc2)nc2cc(C(=O)N3CCC(NC(=O)c4cccc(Cl)c4Cl)CC3)ccc21 [Example 49, 2-[2-(4-Amidinophenyl)-ethyl]-1-methyl-benzimidazole-5-yl-carboxylic acid-[4-(2,3-dichloro)-benzamidopiperidinyl)-amide]"
10,1 to 20 nM,"COc1ccccc1C(=O)NC1CCN(C(=O)c2ccc3c(c2)nc(CCc2ccc(C(=N)N)cc2)n3C)CC1 [Example 50, 2-[2-(4-Amidinophenyl)-ethyl]-1-methyl-benzimidazole-5-yl-carboxylic acid-[4-(2-methoxy)-benzamidopiperidinyl)-amide]"
